From US20240238423A9, “TETRAHYDROISOQUINOLINE HETEROBIFUNCTIONAL BCL-XL DEGRADERS” (Treeline Biosciences, Inc., priority 2022, published 2024)
Where two headings read alike, the source gives them in different places.

Biological target: T1, Human BCL-XL protein (N-terminal HiBiT tagged BCL-XL in HT1080 cells) (Homo sapiens, UniProt Q07817)
T1 construct: expressed in transfected cells; host or cells: HT-1080 (ATCC CCL-121), stably transduced with lentivirus pLV-UBC-N-HiBiT-BCL-XL-PGK-puro and selected with puromycin
Assay: HiBiT based degradation assay
Assay type: cell-based
Conditions: HT1080 cells expressing HiBiT-BCL-XL; for Ymin (24 h) / Ymin (6 h): BCL-XL degradation normalized with DMSO control; for DC50: BCL-XL degradation
Procedure, shortened: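 HT1080 cells stably transduced by lentivirus with N-terminally HiBiT-tagged human BCL-XL and kept under 1 μg/mL puromycin selection were seeded at three thousand cells per well in 40 μL RPMI 1640 into 384-well plates pre-spotted with compounds across a concentration range. Luminescence was read on a PHERAstar FSX, normalized to DMSO, and fitted with a four-parameter logistic model.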

T1 sequence (Q07817 whole entry): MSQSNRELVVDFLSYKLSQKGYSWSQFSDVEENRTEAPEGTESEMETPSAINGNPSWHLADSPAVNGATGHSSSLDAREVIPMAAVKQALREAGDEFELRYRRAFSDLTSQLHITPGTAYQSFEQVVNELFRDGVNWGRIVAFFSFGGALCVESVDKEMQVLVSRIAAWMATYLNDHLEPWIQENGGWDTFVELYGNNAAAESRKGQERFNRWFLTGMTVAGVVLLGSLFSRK

| Ymin (24 h) | DC50 (24 h, read-out: EC50 (24 h)) | Ymin (6 h) | DC50 (6 h, read-out: EC50 (6 h)) | SMILES |
| --- | --- | --- | --- | --- |
| A (Ymin < 50%) | < 100 nM |  |  | Cc1c(O[C@H]2CC[C@H](CCCCN3CC[C@@H](c4cccc5c(C6CCC(=O)NC6=O)nn(C)c45)C3)CC2)cccc1-c1ccc(N2CCc3cccc(C(=O)Nc4nc5ccccc5s4)c3C2)nc1C(=O)O (single isomer, unassigned) [Compound 321b] |
| B (50% ≤ Ymin < 70%) | 100 to 1000 nM |  |  | Cc1c(O[C@H]2CC[C@H](CCC(=O)N3CCC(c4cccc5c(C6CCC(=O)NC6=O)nn(C)c45)CC3)CC2)cccc1-c1ccc(N2CCc3cccc(C(=O)Nc4nc5ccccc5s4)c3C2)nc1C(=O)O (stereo partly drawn) [Compound 253a, 6-(8-(benzo[d]thiazol-2-ylcarbamoyl)-3,4-dihydroisoquinolin-2(1H)-yl)-3-(3-(((1r,4r)-4-(3-(4-(3-(2,6-dioxopiperidin-3-yl)-1-methyl-1H-indazol-7-yl)piperidin-1-yl)-3-oxopropyl)cyclohexyl)oxy)-2-methylphenyl)picolinic acid] |
| A (Ymin < 50%) | < 100 nM |  |  | Cc1c(O[C@H]2CC[C@H](CCCCN3CC[C@@H](c4ccc5c(C6CCC(=O)NC6=O)nn(C)c5c4)C3)CC2)cccc1-c1ccc(N2CCc3cccc(C(=O)Nc4nc5ccccc5s4)c3C2)nc1C(=O)O (single isomer, unassigned) [Compound 332b] |
| B (50% ≤ Ymin < 70%) | < 100 nM |  |  | Cc1c(OCCCC2CCN(Cc3ccc4c(C5CCC(=O)NC5=O)nn(C)c4c3)CC2)cccc1-c1ccc(N2CCc3cccc(C(=O)Nc4nc5ccccc5s4)c3C2)nc1C(=O)O (stereo not drawn) [Compound 304, 6-(8-(benzo[d]thiazol-2-ylcarbamoyl)-3,4-dihydroisoquinolin-2(1H)-yl)-3-(3-(3-(1-((3-(2,6-dioxopiperidin-3-yl)-1-methyl-1H-indazol-6-yl)methyl)piperidin-4-yl)propoxy)-2-methylphenyl)picolinic acid] |
| A (Ymin < 50%) | < 100 nM | C (Ymin ≥ 70%) | 100 to 1000 nM | Cc1c(OCCCC2CCN(CCCOc3ccc4c(C5CCC(=O)NC5=O)nn(C)c4c3)CC2)cccc1-c1ccc(N2CCc3cccc(C(=O)Nc4nc5ccccc5s4)c3C2)nc1C(=O)O (stereo not drawn) [Compound 172, 6-(8-(benzo[d]thiazol-2-ylcarbamoyl)-3,4-dihydroisoquinolin-2(1H)-yl)-3-(3-(3-(1-(3-((3-(2,6-dioxopiperidin-3-yl)-1-methyl-1H-indazol-6-yl)oxy)propyl)piperidin-4-yl)propoxy)-2-methylphenyl)picolinic acid] |
| A (Ymin < 50%) | < 100 nM |  |  | Cc1cc(O[C@H]2CC[C@H](CCCN3CCN(c4cccc5c(C6CCC(=O)NC6=O)nn(C)c45)CC3)CC2)ccc1-c1ccc(N2CCc3cccc(C(=O)Nc4nc5ccccc5s4)c3C2)nc1C(=O)O (stereo partly drawn) [Compound 250a, 6-(8-(benzo[d]thiazol-2-ylcarbamoyl)-3,4-dihydroisoquinolin-2(1H)-yl)-3-(4-(((1s,4r)-4-(3-(4-(3-(2,6-dioxopiperidin-3-yl)-1-methyl-1H-indazol-7-yl)piperazin-1-yl)propyl)cyclohexyl)oxy)-2-methylphenyl)picolinic acid] |
| A (Ymin < 50%) | < 100 nM |  |  | Cc1c(OCCC2CCN(CC3CCN(c4ccc5c(C6CCC(=O)NC6=O)nn(C)c5c4)CC3)CC2)cccc1-c1ccc(N2CCc3cccc(C(=O)Nc4nc5ccccc5s4)c3C2)nc1C(=O)O (stereo not drawn) [Compound 258, 6-[8-(1,3-benzothiazol-2-ylcarbamoyl)-3,4-dihydro-1H-isoquinolin-2-yl]-3-[3-[2-[1-[[1-[3-(2,6-dioxo-3-piperidyl)-1-methyl-indazol-6-yl]-4-piperidyl]methyl]-4-piperidyl]ethoxy]-2-methyl-phenyl]pyridine-2-carboxylic acid] |
| B (50% ≤ Ymin < 70%) | 100 to 1000 nM |  |  | Cc1c(OCCC[C@@H]2CCN(CC(=O)Nc3ccc4c(C5CCC(=O)NC5=O)nn(C)c4c3)CC2(F)F)cccc1-c1ccc(N2CCc3cccc(C(=O)Nc4nc5ccccc5s4)c3C2)nc1C(=O)O (stereo partly drawn) [Compound 193a, 6-(8-(benzo[d]thiazol-2-ylcarbamoyl)-3,4-dihydroisoquinolin-2(1H)-yl)-3-(3-(3-((4R)-1-(2-((3-(2,6-dioxopiperidin-3-yl)-1-methyl-1H-indazol-6-yl)amino)-2-oxoethyl)-3,3-difluoropiperidin-4-yl)propoxy)-2-methylphenyl)picolinic acid] |
| A (Ymin < 50%) | < 100 nM |  |  | Cc1c(CCCOC2CCN(CC(=O)Nc3ccc4c(C5CCC(=O)NC5=O)nn(C)c4c3)CC2)cccc1-c1ccc(N2CCc3cccc(C(=O)Nc4nc5ccccc5s4)c3C2)nc1C(=O)O (stereo not drawn) [Compound 290, 6-[8-(1,3-benzothiazol-2-ylcarbamoyl)-3,4-dihydro-1H-isoquinolin-2-yl]-3-[3-[3-[[1-[2-[[3-(2,6-dioxo-3-piperidyl)-1-methyl-indazol-6-yl]amino]-2-oxo-ethyl]-4-piperidyl]oxy]propyl]-2-methyl-phenyl]pyridine-2-carboxylic acid] |

Continued, compound first:

| SMILES | Ymin (24 h) | DC50 (24 h, read-out: EC50 (24 h)) | Ymin (6 h) | DC50 (6 h, read-out: EC50 (6 h)) |
| --- | --- | --- | --- | --- |
| Cc1c(O[C@H]2CC[C@H](CCCN3CC[C@@H](c4cccc5c(C6CCC(=O)NC6=O)nn(C)c45)C3)CC2)cccc1-c1ccc(N2CCc3cccc(C(=O)Nc4nc5ccccc5s4)c3C2)nc1C(=O)O (single isomer, unassigned) [Compound 320b] | A (Ymin < 50%) | < 100 nM |  |  |
| Cc1c(OCCCN2C[C@@H](C)N(CC(=O)Nc3ccc4c(C5CCC(=O)NC5=O)nn(C)c4c3)[C@@H](C)C2)cccc1-c1ccc(N2CCc3cccc(C(=O)Nc4nc5ccccc5s4)c3C2)nc1C(=O)O (stereo partly drawn) [Compound 116a, 6-[8-(1,3-benzothiazol-2-ylcarbamoyl)-3,4-dihydro-1H-isoquinolin-2-yl]-3-[3-[3-[(3S,5R)-4-[2-[[3-(2,6-dioxo-3-piperidyl)-1-methyl-indazol-6-yl]amino]-2-oxo-ethyl]-3,5-dimethyl-piperazin-1-yl]propoxy]-2-methyl-phenyl]pyridine-2-carboxylic acid] | A (Ymin < 50%) | < 100 nM | A (Ymin < 50%) | < 100 nM |
| Cc1c(OCCCC2(C)CCN(CC(=O)Nc3ccc4c(C5CCC(=O)NC5=O)nn(C)c4c3)CC2)cccc1-c1ccc(N2CCc3cccc(C(=O)Nc4nc5ccccc5s4)c3C2)nc1C(=O)O (stereo not drawn) [Compound 267, 6-[8-(1,3-benzothiazol-2-ylcarbamoyl)-3,4-dihydro-1H-isoquinolin-2-yl]-3-[3-[3-[1-[2-[[3-(2,6-dioxo-3-piperidyl)-1-methyl-indazol-6-yl]amino]-2-oxo-ethyl]-4-methyl-4-piperidyl]propoxy]-2-methyl-phenyl]pyridine-2-carboxylic acid] | A (Ymin < 50%) | < 100 nM |  |  |
| Cc1c(OCCC[C@H]2CCN(CC(=O)Nc3ccc4c(C5CCC(=O)NC5=O)nn(C)c4c3)[C@H](C)C2)cccc1-c1ccc(N2CCc3cccc(C(=O)Nc4nc5ccccc5s4)c3C2)nc1C(=O)O (stereo partly drawn) [Compound 343b, 6-[8-(1,3-benzothiazol-2-ylcarbamoyl)-3,4-dihydro-1H-isoquinolin-2-yl]-3-[3-[3-[(2R,4S)-1-[2-[[3-(2,6-dioxo-3-piperidyl)-1-methyl-indazol-6-yl]amino]-2-oxo-ethyl]-2-methyl-4-piperidyl]propoxy]-2-methyl-phenyl]pyridine-2-carboxylic acid] | A (Ymin < 50%) | < 100 nM |  |  |
| Cc1c(OCCCC2CCN([C@@H](C)C(=O)Nc3ccc4c(C5CCC(=O)NC5=O)nn(C)c4c3)CC2)cccc1-c1ccc(N2CCc3cccc(C(=O)Nc4nc5ccccc5s4)c3C2)nc1C(=O)O (stereo partly drawn) [Compound 164a, 6-(8-(benzo[d]thiazol-2-ylcarbamoyl)-3,4-dihydroisoquinolin-2(1H)-yl)-3-(3-(3-(1-((2S)-1-((3-(2,6-dioxopiperidin-3-yl)-1-methyl-1H-indazol-6-yl)amino)-1-oxopropan-2-yl)piperidin-4-yl)propoxy)-2-methylphenyl)picolinic acid] | A (Ymin < 50%) | < 100 nM |  |  |
| Cc1c(OCC[C@H](C)C2CCN(CC(=O)Nc3ccc4c(C5CCC(=O)NC5=O)nn(C)c4c3)CC2)cccc1-c1ccc(N2CCc3cccc(C(=O)Nc4nc5ccccc5s4)c3C2)nc1C(=O)O (stereo partly drawn) [Compound 167b, 6-[8-(1,3-benzothiazol-2-ylcarbamoyl)-3,4-dihydro-1H-isoquinolin-2-yl]-3-[3-[(3S)-3-[1-[2-[[3-(2,6-dioxo-3-piperidyl)-1-methyl-indazol-6-yl]amino]-2-oxo-ethyl]-4-piperidyl]butoxy]-2-methyl-phenyl]pyridine-2-carboxylic acid] | B (50% ≤ Ymin < 70%) | < 100 nM |  |  |
| Cc1c(Oc2ccc(CCCC(=O)N3CCN(c4ccc5c(C6CCC(=O)NC6=O)nn(C)c5c4)CC3)cc2)cccc1-c1ccc(N2CCc3cccc(C(=O)Nc4nc5ccccc5s4)c3C2)nc1C(=O)O (stereo not drawn) [Compound 178, 6-(8-(benzo[d]thiazol-2-ylcarbamoyl)-3,4-dihydroisoquinolin-2(1H)-yl)-3-(3-(4-(4-(4-(3-(2,6-dioxopiperidin-3-yl)-1-methyl-1H-indazol-6-yl)piperazin-1-yl)-4-oxobutyl)phenoxy)-2-methylphenyl)picolinic acid] | B (50% ≤ Ymin < 70%) | < 100 nM |  |  |
